From ChEMBL document CHEMBL1201862, “PubChem BioAssay data set” (2004)
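Briefly, cells in 96-well plates were exposed to five compound concentrations for 48 h, and endpoints were estimated by linear interpolation. At the GI50, growth is halved.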 Active and inactive are the calls of the source. Cut-off read from the data, not from the text of the source: active = GI50 up to about 1.1 µM and inactive = higher.

Columns and labels:
Experiment in all cases: NCI-60 cell line screen, 48 h
HOP-62 = tested on: HOP-62
PC-3 = tested on: PC-3
OVCAR-8 = tested on: OVCAR-8
HOP-18 = tested on: HOP-18
U-251 = tested on: U-251
HT-29 = tested on: HT-29
RPMI-8226 = tested on: RPMI-8226
HCT-116 = tested on: HCT-116
TK-10 = tested on: TK-10
LOX IMVI = tested on: LOX IMVI
CAKI-1 = tested on: CAKI-1
M19-MEL = tested on: M19-MEL
SNB-78 = tested on: SNB-78
SW-620 = tested on: SW-620
M14 = tested on: M14
KM-20L2 = tested on: KM-20L2
Hs-578T = tested on: Hs-578T
NCI-H460 = tested on: NCI-H460
SR = tested on: SR
DLD-1 = tested on: DLD-1

Measured: GI50

CCOC(=O)C(CC(C)C)NC(=O)C(Cc1ccc(N(CCCl)CCCl)cc1)NC(C)=O (stereo not given)
inactive: HOP-62 3.01 µM | PC-3 15.8 µM | OVCAR-8 8.63 µM | HOP-18 14 µM | U-251 7.91 µM | HT-29 11.7 µM | RPMI-8226 2.82 µM | HCT-116 18.7 µM | TK-10 15.2 µM | LOX IMVI 2.68 µM | CAKI-1 1.29 µM | M19-MEL 3.84 µM | SNB-78 3.93 µM | SW-620 7.73 µM | M14 2.7 µM | KM-20L2 20 µM | Hs-578T 5.12 µM | NCI-H460 2.75 µM

COc1ccc(-c2ccc(CC(=O)O)cc2)cc1OC
inactive: HOP-62 95.5 µM | OVCAR-8 > 100 µM | U-251 > 100 µM | HT-29 > 100 µM | RPMI-8226 > 100 µM | HCT-116 > 100 µM | TK-10 > 100 µM | SR > 100 µM | CAKI-1 > 100 µM | M19-MEL > 100 µM | SNB-78 > 100 µM | SW-620 > 100 µM | DLD-1 > 100 µM | M14 > 100 µM | KM-20L2 > 100 µM | NCI-H460 > 100 µM

ClC1CCC2OOC1O2 (stereo not given)
inactive: HOP-62 > 100 µM | OVCAR-8 > 100 µM | U-251 > 100 µM | HT-29 89.5 µM | RPMI-8226 > 100 µM | HCT-116 61.1 µM | TK-10 > 100 µM | LOX IMVI > 100 µM | SR > 100 µM | CAKI-1 > 100 µM | M19-MEL > 100 µM | SNB-78 > 100 µM | SW-620 > 100 µM | M14 > 100 µM | KM-20L2 > 100 µM | NCI-H460 > 100 µM

CN(C)c1ccc(/C=C/C(=O)C(C)(C)C)cc1Br
inactive: HOP-62 63.5 µM | OVCAR-8 21.8 µM | HOP-18 > 100 µM | U-251 27.4 µM | HT-29 31.8 µM | RPMI-8226 19.5 µM | HCT-116 17.7 µM | TK-10 30.8 µM | CAKI-1 23.9 µM | M19-MEL 19.8 µM | SNB-78 44.2 µM | SW-620 27.7 µM | DLD-1 18.7 µM | M14 18.9 µM | KM-20L2 25.6 µM | NCI-H460 35.8 µM

Cc1ccc(SC(CCC(Sc2ccc(C)cc2)Sc2ccc(C)cc2)Sc2ccc(C)cc2)cc1
inactive: HOP-62 > 100 µM | OVCAR-8 > 100 µM | U-251 > 100 µM | RPMI-8226 > 100 µM | HCT-116 > 100 µM | TK-10 > 100 µM | LOX IMVI > 100 µM | SR > 100 µM | CAKI-1 > 100 µM | M19-MEL > 100 µM | SNB-78 > 100 µM | SW-620 > 100 µM | DLD-1 > 100 µM | M14 > 100 µM | KM-20L2 > 100 µM | NCI-H460 > 100 µM

CCCNC(=O)Nc1c([N+](=O)[O-])cc(C(F)(F)F)cc1[N+](=O)[O-]
inactive: HOP-62 > 100 µM | OVCAR-8 74.3 µM | U-251 > 100 µM | HT-29 37.4 µM | RPMI-8226 83.9 µM | HCT-116 25.3 µM | TK-10 > 100 µM | LOX IMVI 62.8 µM | SR 92.9 µM | CAKI-1 > 100 µM | M19-MEL 42.8 µM | SNB-78 82.8 µM | SW-620 40.8 µM | M14 86.3 µM | KM-20L2 26.2 µM | NCI-H460 42.1 µM

O=C(O)CSc1ccc2nc3ccccc3c(O)c2c1
inactive: HOP-62 > 100 µM | OVCAR-8 > 100 µM | HOP-18 > 100 µM | U-251 > 100 µM | HT-29 > 100 µM | RPMI-8226 > 100 µM | HCT-116 > 100 µM | TK-10 > 100 µM | LOX IMVI > 100 µM | SR > 100 µM | CAKI-1 > 100 µM | M19-MEL > 100 µM | SW-620 > 100 µM | DLD-1 > 100 µM | M14 > 100 µM | KM-20L2 > 100 µM | NCI-H460 > 100 µM

COC(=O)CCc1ccc2c(c1)[C@H](C(=O)OC)[C@@H](c1ccc(O)cc1)O2
inactive: HOP-62 > 100 µM | PC-3 > 100 µM | OVCAR-8 > 100 µM | U-251 > 100 µM | HT-29 > 100 µM | RPMI-8226 75.5 µM | HCT-116 21.5 µM | TK-10 > 100 µM | LOX IMVI > 100 µM | SR 93.5 µM | CAKI-1 > 100 µM | SW-620 > 100 µM | M14 > 100 µM | Hs-578T > 100 µM | NCI-H460 58.9 µM
